For data set [1], the target named is T1, peripheral CCK receptors (pancreas) (Rattus norvegicus, UniProt P30551).
T1 construct: Whole pancreas glands from male Wistar rats with a body weight of 150-300 g; from tissue; host or cells: whole pancreas glands of male Wistar rats, washed homogenate
T1 sequence (P30551 1-444): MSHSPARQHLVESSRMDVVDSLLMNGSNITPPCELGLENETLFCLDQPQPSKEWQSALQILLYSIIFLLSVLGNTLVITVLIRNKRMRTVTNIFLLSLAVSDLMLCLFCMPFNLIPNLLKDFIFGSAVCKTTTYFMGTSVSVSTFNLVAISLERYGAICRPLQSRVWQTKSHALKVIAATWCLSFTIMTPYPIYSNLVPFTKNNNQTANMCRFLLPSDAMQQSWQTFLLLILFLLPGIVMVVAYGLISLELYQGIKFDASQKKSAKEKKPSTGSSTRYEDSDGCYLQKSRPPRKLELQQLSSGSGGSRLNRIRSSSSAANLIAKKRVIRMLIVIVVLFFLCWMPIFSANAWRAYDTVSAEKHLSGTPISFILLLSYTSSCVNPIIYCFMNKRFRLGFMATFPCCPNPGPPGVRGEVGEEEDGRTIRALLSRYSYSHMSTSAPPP
Briefly: peripheral CCK receptor binding affinity on rat pancreas homogenate (inhibition of 3[H]-CCK-8 binding). The following applies: 0.3 nM 3[H]-CCK-8, 90 min, 25° C., pH 7.4, calculated from IC50 by Cheng-Prusoff; for Ki: read-out: In vitro binding to peripheral CCK receptors (pancreas) pKi values (converted). Set-up: species or system rat (male Wistar). On the procedure:
The affinity of the compounds of formula I for peripheral CCK receptors was measured in vitro on rat pancreas homogenate. The inhibition of the binding of the physiologically relevant octopeptide CCK-8 to peripheral CCK receptors by the test substances was determined.
The receptor binding studies were carried out by a modification of the method of van Dijk et al. (J. Neuroscience 4 (1984), 1021-1033), using soya bean trypsin inhibitor (=SBTI) as protease inhibitor. ^3 [H]-CCK-8, code TRK 775, from Amersham Int., having a specific activity of 60-90 Ci/mmol, was used as tritium-labelled CCK-8.
Whole pancreas glands from male Wistar rats with a body weight of 150-300 g, which had been sacrificed by decapitation, were freed of fatty tissue and homogenized for 15 seconds in a 50-fold volume of an ice-cold test buffer solution (10 mmol 2-[4-(2-hydroxyethyl)-piperazin-1-yl]-ethanesulfonic acid (=HEPES), 130 mmol sodium chloride, 5 mmol magnesium chloride, 0.02% bacitracins, 0.01% SBTI, pH 7.4) with a Kinematica Polytron type homogenizer. The homogenates were then centrifuged at 48,000 g for 10 minutes. This washing method was repeated. After the last centrifugation, the residue which was obtained each time in the form of a pellet was suspended in a 550-fold volume of the test buffer solution and immediately used for the measurement.
For the binding test, 500 μl of the tissue homogenate were incubated with 50 μl of test buffer solution or 50 μl of a solution of the compound to be investigated and with 50 μl of a ^3 [H]-CCK-8 solution (final concentration 0.3 nM). The non-specific binding was assumed to be 0.1 μmol CCK-8. The incubation lasted 90 minutes at 25° C. All the compounds were measured 3 times at each of several concentrations.
Aqueous solutions were employed as test substance solutions and were prepared by appropriate dilution of 60×10^-4 molar aqueous stock solutions. Test substances which are sparingly soluble in water were first dissolved in 96% ethanol, and this solution was diluted with sufficient water for the ethanol concentration not to exceed 1.6% by volume in the solution to be tested.
Bound and free ^3 [H]-CCK-8 were separated by filtration through glass fiber filters. The filters were washed twice with 3 ml of HEPES solution each time and then placed in the scintillation solution (SAVE scintillation solution from Packard) in the dark overnight and counted in a Packard TriCarb 1500™liquid scintillation counter. The IC50 of the respective test substance was determined to be that concentration which caused a 50% inhibition of the specific binding of tritiated CCK-8 to the receptors. From this, the corresponding pKi value was calculated using the Cheng-Prusoff equation. […]

Data set [2] in a line: determination of the minimum toxic dose. Type of data set: in vivo, mouse (male). The note with it: mouse. On the procedure:
Male mice weighing 20-25 g were given maximum oral doses of 300 mg/kg of the test substance. The animals were observed carefully for three hours for symptoms of toxicity. In addition, all symptoms and deaths were recorded for a period of 24 hours after administration. Concomitant symptoms were likewise observed and recorded. If death or serious symptoms of toxicity were observed, further mice were given increasingly lower doses. The lowest dose which caused death or serious symptoms of toxicity is indicated in the following Table A as the minimum toxic dose.

For data set [3], the system named is CCK-induced disturbance of stomach emptying. Briefly: effect of test substances on CCK-induced disturbances of emptying of the stomach (charcoal transport into duodenum). Type of data set: in vivo, mouse (female NMRI). On the procedure:
Doses of CCK lead to substantial blockade of the transpyloric transport of chyme from the stomach into the duodenum. The ability of the test substances to eliminate this blocking effect of CCK was investigated.
Female NMRI mice having body weights of 20-25 g were used in groups of ten animals each. […] A control group received only the Tylose® solution or the solution containing the solubilizer polyethylene glycol in each case. 60 minutes later the animals were given a subcutaneous injection of 80 Ig/kg CCK-8. After a further 5 minutes the animals were each orally administered 0.3 ml of a charcoal suspension (5% charcoal in 2% strength Tylose solution). The mice were sacrificed 5 minutes later and subsequently dissected. They were examined to find whether charcoal suspension had advanced into the duodenum.
The percentage of animals in which the CCK effect was eliminated and charcoal suspension was found in the duodenum after administration of the test substances was determined.

The mark [4] stands for this setting: oral, lowest dose causing death or serious symptoms of toxicity, max 300 mg/kg, 24 h.
Where [5] appears, read: dose 1.0 μmol/kg mouse oral, CCK-8 s.c. 60 min later.
[6] abbreviates: dose 1.0* μmol/kg mouse oral, * = administered in solution containing solubilizer (PEG 400).
Setting [7] is: dose 10 μmol/kg mouse oral, CCK-8 s.c. 60 min later.

Molecules are shown by their SMILES. Where only a bound is given, the exact number is not on record here.

As for `Cc1ccc2c(c1)C(c1ccccc1)=NC(NC(=O)c1cc3cccc4c3n1CCC4)C(=O)N2C` (centres unmarked) [Example 18], the Ki in data set [1] is 1.17 nM. This compound also displayed a Minimum toxic dose in data set [2] (setting [4]) of more than 300 mg/kg.
Take `CN1C(=O)C(NC(=O)c2cc3cccc4c3n2CCC4)N=C(C2CCCCC2)c2ccccc21` (centres unmarked) [Example 4, 3-[(4H-pyrrolo[3,2,1-ij]-5,6-dihydroquinoline-2-carbonyl)-amino]-1-methyl-2-oxo-5-cyclohexyl-1H-2,3-dihydro-1,4-benzodiazepine]: in data set [1], the Ki was 2.51 nM. The compound also showed a Minimum toxic dose in data set [2] (in vivo, 1440 min) of more than 300 mg/kg. Besides, in data set [3] (setting [5]), the “% of Animals in which the CCK Effect was Eliminated” value (shortened to “% of Animals”) is on record as 45%.
In the case of `COc1ccc2c(c1)N(C)C(=O)C(NC(=O)c1cc3cccc4c3n1CCC4)N=C2c1c(F)cccc1OCCC(C)C` (centres unmarked) [Example 17], the Ki in data set [1] was 10 nM. Moreover, the “% of Animals” value in data set [3] (setting [6]) was 50%.
Regarding `CN1C(=O)C(NC(=O)c2cc3cccc4c3n2CCC4)N=C(c2ccccc2F)c2ccccc21` (centres unmarked) [Example 22], in data set [1], the Ki is 0.912 nM. The Minimum toxic dose in data set [2] (setting [4]) is reported as more than 300 mg/kg.
Take `CN1C(=O)C(NC(=O)c2cc3cccc4c3n2CCS4)N=C(c2ccccc2)c2ccccc21` (centres unmarked) [Example 38]: the Ki in data set [1] was 0.977 nM.
The same measure, in the same setting: to `CN1C(=O)C(NC(=O)c2cc3cccc4c3n2CCO4)N=C(c2ccccc2)c2ccccc21` (centres unmarked) [Example 37] belongs 0.646 nM.
With `Cc1ccc2c(c1)C(c1ccccc1F)=NC(NC(=O)c1cc3cccc4c3n1CCC4)C(=O)N2C` (centres unmarked) [Example 10], the “In vitro binding to peripheral CCK receptors (pancreas) pKi values” in data set [1] is 8.75. This compound also registered a Minimum toxic dose in data set [2] (setting [4]) of 300 mg/kg. For the same compound, the “% of Animals” value in data set [3] (dose 0.1 μmol/kg mouse oral, CCK-8 s.c. 60 min later) is 40%.
For `CC(C)N1C(=O)C(NC(=O)c2cc3cccc4c3n2CCC4)N=C(c2ccccc2)c2ccccc21` (centres unmarked) [Example 25], in data set [1], the Ki was 24 nM. This compound displayed a Minimum toxic dose in data set [2] (setting [4]) of more than 300 mg/kg.
As to `Cc1ccc(C2=NC(NC(=O)c3cc4cccc5c4n3CCC5)C(=O)N(C)c3ccccc32)cc1` (centres unmarked) [Example 30], the Ki in data set [1] was 2.34 nM. Also, the Minimum toxic dose in data set [2] (setting [4]) amounted to 300 mg/kg.
Taken in the same sequence, the figures for `CN1C(=O)C(NC(=O)c2cc3cccc4c3n2CCC4)N=C(c2ccc(F)cc2F)c2ccccc21` (centres unmarked) [Example 11] were 2.4 nM and 300 mg/kg.
With `Cc1ccc2c(c1)C(c1cccs1)=NC(NC(=O)c1cc3cccc4c3n1CCC4)C(=O)N2C` (centres unmarked) [Example 8, 3-[(4H-Pyrrolo[3,2,1-ij]-5,6-dihydroquinoline-2-carbonyl)-amino]-1,7-dimethyl-2-oxo-5-(2-thienyl)-1H-2,3-dihydro-1,4-benzodiazepine], the Ki in data set [1] is 9.12 nM.
As for `O=C(NC1N=C(c2ccccc2)c2ccccc2N(CC2CC2)C1=O)c1cc2cccc3c2n1CCC3` (centres unmarked) [Example 23], the Ki in data set [1] is 10 nM. The same compound had a Minimum toxic dose in data set [2] (setting [4]) of more than 300 mg/kg.
Take `COc1ccc2c(c1)N(C)C(=O)C(NC(=O)c1cc3cccc4c3n1CCC4)N=C2c1c(F)cccc1F` (centres unmarked) [Example 13]: the Ki in data set [1] is 1 nM. Also, the Minimum toxic dose in data set [2] (setting [4]) is recorded as more than 300 mg/kg. The “% of Animals” value came to 83% in data set [3] (setting [7]) and 100% in data set [3] (setting [6]).
With `CN1C(=O)C(NC(=O)c2cc3cc(F)cc4c3n2CCC4)N=C(c2ccccc2)c2ccccc21` (centres unmarked) [Example 5, 3-[(8-fluoro-4H-pyrrolo[3,2,1-ij]-5,6-dihydroquinoline-2-carbonyl)-amino]-2-oxo-1-methyl-5-phenyl-1H-2,3-dihydro-1,4-benzodiazepine], in data set [1], the Ki is 1.45 nM. The same compound showed a Minimum toxic dose in data set [2] (setting [4]) of more than 300 mg/kg. For the same compound, in data set [3] (setting [7]), the “% of Animals” value was determined as 75%.
On to `Cc1ccc2c(c1)C(c1ccc(Cl)c(Cl)c1)=NC(NC(=O)c1cc3cccc4c3n1CCC4)C(=O)N2C` (centres unmarked) [Example 27], for which the “% of Animals” value in data set [3] (setting [5]) is recorded as 40%.
`CN1C(=O)C(NC(=O)c2cc3cc(F)cc4c3n2CCC4)N=C(c2ccccc2)c2cc(Cl)ccc21` (centres unmarked) [Example 26]: the Ki in data set [1] was 6.17 nM.

The record behind these values is patent US5010076A, “1,7-fused 1H-indole-2-carboxylic acid-N-(1,4-benzodiazepin-3-yl)amides” (Kali-Chemie Pharma GmbH, priority 1989, dated 1991).
